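Grown in 96-well plates, cells were treated for 48 hours with each compound at five concentrations. Insufficient inhibition: endpoint recorded as highest concentration tested. At the GI50, growth is halved.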 Activity calls are given as the source filed them. Rule as the data show it: active = GI50 up to about 1.1 µM and inactive = higher.
Key:
Assay in all cases: NCI tumour cell line growth inhibition, 48 h
SNB-75 = system: SNB-75
HT-29 = system: HT-29
HCT-116 = system: HCT-116
MDA-N = system: MDA-N
CCRF-CEM = system: CCRF-CEM
EKVX = system: EKVX
IGROV-1 = system: IGROV-1
COLO 205 = system: COLO 205
K562 = system: K562
SF-268 = system: SF-268
Malme-3M = system: Malme-3M
MOLT-4 = system: MOLT-4
SF-295 = system: SF-295
OVCAR-4 = system: OVCAR-4
OVCAR-3 = system: OVCAR-3
SK-OV-3 = system: SK-OV-3
NCI/ADR-RES = system: NCI/ADR-RES
UACC-257 = system: UACC-257
LOX IMVI = system: LOX IMVI
RPMI-8226 = system: RPMI-8226

Measured: GI50

CCCC(=O)N1CCN(c2ccc3c(c2)OC(C)O3)CC1 (centres undefined)
inactive: SNB-75 15.4 µM | HT-29 > 100 µM | HCT-116 > 100 µM | MDA-N > 100 µM | CCRF-CEM > 100 µM | EKVX > 100 µM | IGROV-1 > 100 µM | COLO 205 > 100 µM | K562 > 100 µM | SF-268 > 100 µM | Malme-3M > 100 µM | MOLT-4 > 100 µM | SF-295 > 100 µM | OVCAR-4 > 100 µM | OVCAR-3 > 100 µM | SK-OV-3 > 100 µM | NCI/ADR-RES > 100 µM | UACC-257 > 100 µM

Cc1ccc(/C=N/n2c(=O)[nH]c3ccccc3c2=O)cc1
inactive: HT-29 > 100 µM | HCT-116 > 100 µM | MDA-N > 100 µM | CCRF-CEM > 100 µM | LOX IMVI > 100 µM | EKVX > 100 µM | RPMI-8226 > 100 µM | IGROV-1 > 100 µM | COLO 205 > 100 µM | K562 > 100 µM | SF-268 > 100 µM | MOLT-4 > 100 µM | SF-295 > 100 µM | OVCAR-3 > 100 µM | SK-OV-3 > 100 µM | UACC-257 > 100 µM

N/C(=N\Nc1cccc(Cl)c1)c1cccnc1
inactive: SNB-75 29.7 µM | HT-29 27.2 µM | HCT-116 29.9 µM | CCRF-CEM 18.6 µM | LOX IMVI 50 µM | EKVX 40.6 µM | RPMI-8226 14.7 µM | IGROV-1 70.6 µM | COLO 205 29 µM | K562 4.04 µM | SF-268 65.3 µM | Malme-3M 97.9 µM | MOLT-4 28.3 µM | SF-295 35.7 µM | OVCAR-4 13.7 µM | OVCAR-3 13.5 µM | SK-OV-3 > 100 µM | NCI/ADR-RES 38.7 µM | UACC-257 32.3 µM

O=C(N/N=C\c1ccc([N+](=O)[O-])s1)c1ccncc1
inactive: SNB-75 19.4 µM | HT-29 4.13 µM | HCT-116 5.07 µM | MDA-N 14.1 µM | CCRF-CEM 6.52 µM | EKVX 20.7 µM | RPMI-8226 5.62 µM | IGROV-1 10.3 µM | COLO 205 2.13 µM | K562 > 10 µM | SF-268 13.6 µM | Malme-3M 8.18 µM | MOLT-4 19.9 µM | SF-295 16.4 µM | OVCAR-4 15 µM | OVCAR-3 2.82 µM | SK-OV-3 38.5 µM | NCI/ADR-RES 22.8 µM | UACC-257 14.6 µM

CC[C@H](CO)Nc1nc(NCc2ccccc2)c2ncn(C(C)C)c2n1 [SELICICLIB]
inactive: SNB-75 11.3 µM | HT-29 20 µM | HCT-116 5.09 µM | CCRF-CEM > 100 µM | LOX IMVI 14 µM | EKVX 19.1 µM | RPMI-8226 24.2 µM | IGROV-1 5.78 µM | COLO 205 11.6 µM | K562 53 µM | SF-268 19.8 µM | Malme-3M 19.3 µM | MOLT-4 25.1 µM | SF-295 25.5 µM | OVCAR-4 35.2 µM | OVCAR-3 11.5 µM | SK-OV-3 86.3 µM | NCI/ADR-RES 6.97 µM

C[NH+]1[C@@H](Cc2ccccc2)C(=O)O[B-]1(F)c1ccccc1 (some centres undefined)
inactive: SNB-75 > 100 µM | HT-29 > 100 µM | HCT-116 > 100 µM | MDA-N > 100 µM | CCRF-CEM > 100 µM | EKVX > 100 µM | RPMI-8226 > 100 µM | IGROV-1 > 100 µM | COLO 205 > 100 µM | K562 > 100 µM | SF-268 > 100 µM | Malme-3M > 100 µM | MOLT-4 > 100 µM | SF-295 > 100 µM | OVCAR-4 > 100 µM | OVCAR-3 > 100 µM | SK-OV-3 > 100 µM | NCI/ADR-RES > 100 µM | UACC-257 > 100 µM
